We go through three molecules from patent US10520508B2, “Predictive baseline biomarkers for use of vascular disrupting agents” (BIONOMICS LIMITED, priority 2014, dated 2019).

The subject of data set [1] is tumour endothelial cells (activated) and normal endothelial cells (quiescent). Briefly: Potency against activated (tumour) versus quiescent (normal) endothelial cells. It counts as cell-based. To be noted: activated vs quiescent endothelial cells.
Another data set deals with tubulin. In words: Tubulin polymerisation inhibition. It counts as biochemical.
A short description of data set [2]: Disruptor-1 trial: BNC105P in combination with everolimus, maximum tolerated dose. It counts as in vivo, human (metastatic clear cell renal cell carcinoma patients). The settings on record: intravenous infusion over 10 minutes, days 1 and 8 of 21 day cycle, with 10 mg oral everolimus daily. The text has this:
The objective of the study was to determine the response rate of patients administered BNC105P (vascular disrupting agent) in combination with everolimus (mTOR inhibitor) in patients who had progressed from prior tyrosine kinase inhibitor therapy. In addition, the present inventors determined the improvement in 6-months progression free survival (PFS) with the addition of BNC105P to everolimus (Afinitor). A control group of patients received everolimus alone.
The medical histories of patients were obtained prior to commencement of the study.
Patients in the BNC105P in combination with everolimus study group (the “combination arm”) were administered 10 mg oral everolimus daily. On days 1 and 8 of the 21 day cycle period, the patients were administered 16 mg/m^2 BNC105P, which had been determined to be the maximum tolerated dose, by intravenous infusion over a 10 minute period (FIG. 1). Treatment was continued until disease progressed, intolerable toxicity became apparent, or until consent was withdrawn. A control group of patients were administered with everolimus alone.

On to `COc1cc(C(=O)c2c(C)oc3c(O)c(OC)ccc23)cc(OC)c1OC` [formula III, 2-methyl-7-hydroxy-3-(3,4,5-trimethoxybenzoyl)-6-methoxybenzofuran], for which the “selectivity between activated (tumour) and quiescent (normal) endothelial cells” value in data set [1] is given as “show selectivity towards tumor endothelial cells (activated) over normal endothelial cells (quiescent)”. The tubulin polymerisation inhibition entry with tubulin was “potent tubulin polymerisation inhibitors”.

Take `COc1ccc(/C=C\c2cc(OC)c(OC)c(OC)c2)cc1O` [Combretastatin A4, reference compound]: the “selectivity between activated (tumour) and quiescent (normal) endothelial cells” value in data set [1] is “equally potent against quiescent and activated endothelial cells”.

Consider `COc1cc(C(=O)c2c(C)oc3c(OP(=O)([O-])[O-])c(OC)ccc23)cc(OC)c1OC.[Na+].[Na+]` [BNC105P, disodium [6-methoxy-2-methyl-3-(3,4,5-trimethoxybenzoyl)-1-benzofuran-7-yl] phosphate], for which, in data set [2], the maximum tolerated dose came out at 16 mg/m^2.
